The values below come from patent US8835429B2, “Pyrimidine compounds, their use as mTOR kinase and Pl3 kinase inhibitors, and their syntheses” (Wyeth LLC, priority 2009, dated 2014).

In one experiment the target is mTOR (Homo sapiens, UniProt P42345). Put plainly: mTOR enzyme assay (DELFIA, purified FLAG-TOR, His6-S6K substrate). The format is biochemical. Further details: FLAG. As to conditions: 100 μM ATP, 2 hours.
Another experiment concerns MDA468. The experiment in a line: In vitro cell growth assay (MTS), MDA468. The format is cell-based. To be noted: 72 h, human breast line MDA468, three days after drug treatment, read-out: MDA IC50.
The target in a further experiment is PI3K-gamma (Homo sapiens, UniProt P48736). The experiment in a line: PI3K-gamma fluorescence polarization assay. It is filed as biochemical. To be noted: 20 μM PIP2, 25 μM ATP; read-out: PI3Kγ IC50. Here is the method: The reaction buffer was 20 mM HEPES, pH 7.5, 2 mM MgCl2, 0.05% CHAPS; and 0.01% βME (added fresh). The stop/detection buffer was 100 mM HEPES, pH 7.5, 4 mM EDTA, 0.05% CHAPS; ATP 20 mM in water; PIP2 (diC8, Echelon, Salt Lake City Utah cat #P-4508) 1 mM in water (MW=856.5). The GST-GRP was 1.75 mg/mL or 1.4 mg/mL in 10% glycerol. The red detector (TAMRA) was 2.5 μM. Nunc 384-well black polypropylene fluorescent plates were used for PI3K assays.
PI3K-gamma, sequence (P48736 whole entry, species assumed): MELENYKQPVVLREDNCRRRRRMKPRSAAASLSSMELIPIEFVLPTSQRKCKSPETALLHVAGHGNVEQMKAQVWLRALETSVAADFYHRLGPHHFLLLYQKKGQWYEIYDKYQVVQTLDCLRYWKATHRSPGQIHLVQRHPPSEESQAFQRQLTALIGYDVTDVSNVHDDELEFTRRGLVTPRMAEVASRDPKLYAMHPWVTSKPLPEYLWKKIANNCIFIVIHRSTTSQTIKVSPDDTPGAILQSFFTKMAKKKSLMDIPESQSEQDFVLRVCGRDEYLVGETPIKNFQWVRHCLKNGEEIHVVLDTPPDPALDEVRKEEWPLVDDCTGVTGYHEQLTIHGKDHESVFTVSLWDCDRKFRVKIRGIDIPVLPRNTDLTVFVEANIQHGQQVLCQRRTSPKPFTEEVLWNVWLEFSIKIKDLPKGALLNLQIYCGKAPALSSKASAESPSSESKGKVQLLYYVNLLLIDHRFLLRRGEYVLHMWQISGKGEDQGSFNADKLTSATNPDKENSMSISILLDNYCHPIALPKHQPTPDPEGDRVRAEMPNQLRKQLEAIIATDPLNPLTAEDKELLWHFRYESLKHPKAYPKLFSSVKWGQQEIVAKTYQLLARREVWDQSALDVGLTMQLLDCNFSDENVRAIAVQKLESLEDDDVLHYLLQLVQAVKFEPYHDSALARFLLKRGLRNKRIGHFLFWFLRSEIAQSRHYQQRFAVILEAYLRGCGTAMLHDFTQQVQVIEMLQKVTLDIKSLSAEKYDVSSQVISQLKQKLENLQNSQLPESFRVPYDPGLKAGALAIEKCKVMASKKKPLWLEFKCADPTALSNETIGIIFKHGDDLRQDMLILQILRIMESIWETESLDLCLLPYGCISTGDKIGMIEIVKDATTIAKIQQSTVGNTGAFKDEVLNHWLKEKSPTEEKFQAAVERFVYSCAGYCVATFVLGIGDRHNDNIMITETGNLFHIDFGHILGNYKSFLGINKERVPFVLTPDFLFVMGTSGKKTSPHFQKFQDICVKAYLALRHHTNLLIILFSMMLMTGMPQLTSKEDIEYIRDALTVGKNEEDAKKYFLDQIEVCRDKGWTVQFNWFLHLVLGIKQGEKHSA
The assay is run by placing 5 μL of diluted enzyme per well, then 5 μL of diluted compound (or 9.5 μL enzyme then 0.5 μL compound in DMSO) is added and mixed. Then, 10 μL substrate is added to start the reaction. The samples are incubated 30-60 minutes, then the reaction is stopped by adding 20 μL stop/detector mix. PI3K is diluted with reaction buffer (e.g., 5 μL or 7.5 μL PI3K into 620 μL reaction buffer), and 5 μL of diluted enzyme is used per well. A 5 μL portion of reaction buffer or of drug diluted in buffer (e.g., 4 μL/100 so final DMSO is 1% in reaction) is added to each. Pipetting up and down mixes the samples. Alternatively, the enzyme can be diluted to 1215 μL. In this case 9.8 μL is added per well and 0.2 μL compound is added in DMSO.
To prepare 1 mL of substrate solution, 955 μL reaction buffer, 40 μL PIP2, and 2.5 μL ATP are mixed. 10 μL of substrate is added to each well to start the reaction. […] The stop/detector mix is prepared by mixing 4 μL red detector and 1.6 μL or 2.0 μL GST-GRP with 1 mL stop buffer, which results in 10 nM probe and 70 nM GST-GRP. 20 μL of the stop/detector mix is added to each well to stop the reaction. The plates are read after 30-90 minutes keeping the red probe solutions dark. For the zero time point, stop/detector mix is added to the enzyme just before adding substrate. For an extra control, stop/detector mix is added to buffer (no enzyme) and substrate or to just buffer (no substrate). […] The recommended reaction has 0.06 μL per 20 μL (0.015 μg/20 μL) or 0.01125 μg/15 μL or 0.75 μg/mL.
Plates are read on machines with filters for TAMRA. The units are mP with no enzyme controls reading app 190-220 mP units. Fully active enzyme reduces fluorescence polarization down to 70-100 mP after 30 minutes. An active compound raises the mP values halfway to control or to 120-150 mP units.
(In general: In fluorescence polarisation assays a small probe gives low polarisation when free and higher when bound to something large.)

Another experiment addresses PI3K-alpha (Homo sapiens, UniProt P42336). Put plainly: PI3K-alpha fluorescence polarization assay. The format is biochemical. As to conditions: 20 μM PIP2, 25 μM ATP; read-out: PI3Kα IC50. The method in brief:
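PIP2 (diC8) and ATP substrate with PI3K in 20 mM HEPES pH 7.5, 2 mM MgCl2, 0.05% CHAPS, 0.01% βME; 1% DMSO final; 30–60 min reaction. Stopped with EDTA plus GST-GRP (70 nM) and TAMRA probe (10 nM); FP (mP) read after 30–90 min, with no-enzyme controls.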

The next experiment concerns LNCap. The experiment in a line: In vitro cell growth assay (MTS), LNCap. It is filed as cell-based. As to conditions: LNCaP, 72 h, human prostate line, three days after drug treatment.

PI3K-alpha, sequence (P42336 whole entry, species assumed): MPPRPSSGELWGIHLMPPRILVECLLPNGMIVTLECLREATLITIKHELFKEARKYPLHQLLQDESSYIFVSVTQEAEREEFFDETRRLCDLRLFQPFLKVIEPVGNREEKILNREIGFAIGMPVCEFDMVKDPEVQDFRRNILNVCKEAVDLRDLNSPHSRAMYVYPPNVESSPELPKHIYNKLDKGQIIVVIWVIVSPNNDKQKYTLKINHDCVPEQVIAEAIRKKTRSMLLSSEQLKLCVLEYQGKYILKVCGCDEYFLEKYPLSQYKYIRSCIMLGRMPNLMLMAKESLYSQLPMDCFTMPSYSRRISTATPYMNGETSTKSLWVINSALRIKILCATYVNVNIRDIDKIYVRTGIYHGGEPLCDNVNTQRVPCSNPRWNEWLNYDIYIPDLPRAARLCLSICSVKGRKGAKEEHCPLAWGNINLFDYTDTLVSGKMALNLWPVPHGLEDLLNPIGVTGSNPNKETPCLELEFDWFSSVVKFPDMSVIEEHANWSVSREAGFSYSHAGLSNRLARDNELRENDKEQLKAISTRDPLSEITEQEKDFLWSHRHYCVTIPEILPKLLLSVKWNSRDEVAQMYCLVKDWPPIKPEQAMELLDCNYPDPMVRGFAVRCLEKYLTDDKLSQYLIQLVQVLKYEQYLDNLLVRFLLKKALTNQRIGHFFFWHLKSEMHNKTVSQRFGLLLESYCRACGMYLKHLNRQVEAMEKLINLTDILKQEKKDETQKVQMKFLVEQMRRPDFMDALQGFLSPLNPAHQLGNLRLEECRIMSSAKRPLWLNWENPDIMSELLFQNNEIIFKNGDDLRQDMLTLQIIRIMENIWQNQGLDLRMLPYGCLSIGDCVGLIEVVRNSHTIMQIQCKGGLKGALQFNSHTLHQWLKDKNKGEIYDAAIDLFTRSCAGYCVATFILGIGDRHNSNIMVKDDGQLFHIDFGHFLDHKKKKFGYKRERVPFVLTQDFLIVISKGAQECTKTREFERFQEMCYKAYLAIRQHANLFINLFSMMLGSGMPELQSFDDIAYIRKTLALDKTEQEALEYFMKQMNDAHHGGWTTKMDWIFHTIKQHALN
PI3K-alpha, sequence (P27986 whole entry partner, species assumed): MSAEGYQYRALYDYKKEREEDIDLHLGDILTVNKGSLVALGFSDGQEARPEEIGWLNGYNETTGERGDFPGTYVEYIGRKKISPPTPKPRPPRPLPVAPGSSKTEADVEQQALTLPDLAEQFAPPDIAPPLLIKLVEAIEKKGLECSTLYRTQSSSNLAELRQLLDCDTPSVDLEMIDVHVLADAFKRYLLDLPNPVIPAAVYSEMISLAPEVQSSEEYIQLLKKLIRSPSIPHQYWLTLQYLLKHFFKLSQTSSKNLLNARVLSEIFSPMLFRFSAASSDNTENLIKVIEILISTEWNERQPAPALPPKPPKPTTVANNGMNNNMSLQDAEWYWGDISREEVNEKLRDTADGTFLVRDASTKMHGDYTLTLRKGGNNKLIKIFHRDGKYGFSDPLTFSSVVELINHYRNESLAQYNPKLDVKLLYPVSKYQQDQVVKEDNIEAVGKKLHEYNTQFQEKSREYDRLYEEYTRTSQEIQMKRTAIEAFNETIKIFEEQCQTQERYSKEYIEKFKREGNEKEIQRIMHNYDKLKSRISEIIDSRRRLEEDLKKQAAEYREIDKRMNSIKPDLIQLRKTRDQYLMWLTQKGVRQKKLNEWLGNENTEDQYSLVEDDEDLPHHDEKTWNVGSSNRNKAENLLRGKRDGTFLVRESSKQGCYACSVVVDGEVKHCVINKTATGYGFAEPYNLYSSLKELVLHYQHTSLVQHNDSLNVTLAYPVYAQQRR
mTOR, sequence (P42345 1360-2549 limits assumed): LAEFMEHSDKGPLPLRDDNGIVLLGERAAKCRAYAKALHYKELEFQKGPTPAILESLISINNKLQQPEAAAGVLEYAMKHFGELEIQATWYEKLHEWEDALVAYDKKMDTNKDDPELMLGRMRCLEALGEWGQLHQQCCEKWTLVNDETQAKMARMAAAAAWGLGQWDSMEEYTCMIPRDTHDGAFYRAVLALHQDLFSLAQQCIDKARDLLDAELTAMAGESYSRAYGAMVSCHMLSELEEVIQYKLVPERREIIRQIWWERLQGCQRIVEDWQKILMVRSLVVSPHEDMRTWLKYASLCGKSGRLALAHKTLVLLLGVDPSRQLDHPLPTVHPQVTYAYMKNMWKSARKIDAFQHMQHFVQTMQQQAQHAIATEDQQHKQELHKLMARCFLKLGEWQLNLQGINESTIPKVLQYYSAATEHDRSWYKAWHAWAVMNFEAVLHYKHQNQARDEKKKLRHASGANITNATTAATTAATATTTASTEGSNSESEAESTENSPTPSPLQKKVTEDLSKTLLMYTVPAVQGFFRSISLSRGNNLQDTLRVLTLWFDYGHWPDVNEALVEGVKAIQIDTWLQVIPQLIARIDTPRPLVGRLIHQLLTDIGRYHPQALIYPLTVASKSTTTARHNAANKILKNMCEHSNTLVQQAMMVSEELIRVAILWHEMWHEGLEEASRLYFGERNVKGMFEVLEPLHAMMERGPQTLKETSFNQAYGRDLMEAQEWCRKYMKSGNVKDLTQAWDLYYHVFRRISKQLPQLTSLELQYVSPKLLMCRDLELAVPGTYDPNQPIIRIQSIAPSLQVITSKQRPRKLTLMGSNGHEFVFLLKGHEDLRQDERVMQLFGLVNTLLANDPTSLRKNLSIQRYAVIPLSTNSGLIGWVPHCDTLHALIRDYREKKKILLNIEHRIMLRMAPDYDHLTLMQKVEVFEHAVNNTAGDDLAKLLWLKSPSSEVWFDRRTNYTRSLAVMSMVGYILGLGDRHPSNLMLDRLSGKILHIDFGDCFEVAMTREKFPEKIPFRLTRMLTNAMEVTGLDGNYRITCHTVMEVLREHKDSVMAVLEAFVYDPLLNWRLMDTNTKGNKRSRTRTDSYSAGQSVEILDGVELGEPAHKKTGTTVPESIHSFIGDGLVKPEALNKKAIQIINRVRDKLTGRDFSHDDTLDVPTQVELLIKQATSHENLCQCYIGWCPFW

A word on the IC50: it is the concentration that inhibits the measured activity by half. For `CN(C)Cc1cc(N2C3CCC2COC3)nc(-c2ccc(NC(=O)Nc3cccnc3)cc2)n1` [1-(4-{4-[(dimethylamino)methyl]-6-(3-oxa-8-azabicyclo[3.2.1]oct-8-yl)pyrimidin-2-yl}phenyl)-3-pyridin-3-ylurea], the IC50 on mTOR was 10.8 nM; with MDA468, 1000 nM; at PI3K-gamma it was > 10000 nM; on PI3K-alpha, 3160 nM; in the experiment on LNCap, 600 nM.
In the case of `CN(C)CCOc1ccc(NC(=O)Nc2ccc(-c3nc(NC4CCOCC4)cc(N4C5CCC4COC5)n3)cc2)cc1` [1-{4-[2-(dimethylamino)ethoxy]phenyl}-3-{4-[4-(3-oxa-8-azabicyclo[3.2.1]oct-8-yl)-6-(tetrahydro-2H-pyran-4-ylamino)pyrimidin-2-yl]phenyl}urea], the IC50 at mTOR stood at 7.6 nM; with MDA468, 48 nM; on PI3K-gamma, 4540 nM; at PI3K-alpha, 1110 nM; in the experiment on LNCap it was 30 nM.
With `CC(C)Nc1cc(N2C3COCC2COC3)nc(-c2ccc(NC(=O)Nc3ccncc3)cc2)n1` [1-{4-[4-(3,7-dioxa-9-azabicyclo[3.3.1]non-9-yl)-6-(isopropylamino)pyrimidin-2-yl]phenyl}-3-pyridin-4-ylurea], the IC50 on mTOR amounted to 5 nM; in the experiment on MDA468 it was 400 nM; on PI3K-gamma, 9240 nM; on PI3K-alpha, 1520 nM; in the experiment with LNCap, 280 nM.
The matching figures for `CCN(CC)c1cc(N2C3CCC2COC3)nc(-c2ccc(NC(=O)Nc3ccc(N4CCN(C)CC4)cc3)cc2)n1` [1-{4-[4-(diethylamino)-6-(3-oxa-8-azabicyclo[3.2.1]oct-8-yl)pyrimidin-2-yl]phenyl}-3-[4-(4-methylpiperazin-1-yl)phenyl]urea]: 5.85 nM, 560 nM, 3390 nM, 2910 nM and 132 nM.
Take `CCN(CC)c1cc(N2C3CCC2COC3)nc(-c2ccc(NC(=O)Nc3ccncc3)cc2)n1` [1-{4-[4-(diethylamino)-6-(3-oxa-8-azabicyclo[3.2.1]oct-8-yl)pyrimidin-2-yl]phenyl}-3-pyridin-4-ylurea]: the concentration for half-maximal inhibition (IC50) against mTOR was 4.55 nM; at PI3K-gamma, 1990 nM; at PI3K-alpha, 2410 nM.
For the compound `O=C(Nc1ccncc1)Nc1ccc(-c2nccc(N3CC4CCC(C3)O4)n2)cc1` [1-{4-[4-(8-oxa-3-azabicyclo[3.2.1]oct-3-yl)pyrimidin-2-yl]phenyl}-3-pyridin-4-ylurea], the IC50 was determined as 14.5 nM against mTOR, 650 nM in the experiment on MDA468, 224 nM on PI3K-alpha and 180 nM with LNCap.
As for `O=C(Nc1ccc(-c2cc(N3CC4CCC(C3)O4)nc(-c3ccc(NC(=O)OCCO)cc3)n2)cc1)OCCO` [bis(2-hydroxyethyl) {[6-(8-oxa-3-azabicyclo[3.2.1]oct-3-yl)pyrimidine-2,4-diyl]di-4,1-phenylene}biscarbamate], the half-inhibitory concentration (IC50) is 9.4 nM at mTOR, 1600 nM in the experiment on MDA468, 5000 nM on PI3K-alpha and 240 nM with LNCap.
Consider `CC(C)Nc1cc(N2CC3CCC(C2)O3)nc(-c2ccc(NC(=O)Nc3ccc(N4CCN(C)CC4)cc3)cc2)n1` [1-(4-{4-[(1-methylethyl)amino]-6-(8-oxa-3-azabicyclo[3.2.1]oct-3-yl)pyrimidin-2-yl}phenyl)-3-[4-(4-methylpiperazin-1-yl)phenyl]urea], for which the IC50 is 4.17 nM on mTOR, 50 nM in the experiment on MDA468, 212 nM at PI3K-alpha and 13.4 nM in the experiment with LNCap.
The matching figures for `CNC(=O)Nc1ccc(-c2nc(OC(C)C)cc(N3CC4CCC(C3)O4)n2)cc1` [1-methyl-3-{4-[4-(1-methylethoxy)-6-(8-oxa-3-azabicyclo[3.2.1]oct-3-yl)pyrimidin-2-yl]phenyl}urea]: 3 nM, 890 nM, 700 nM and 190 nM.
For `CNC(=O)Nc1ccc(-c2nc(N3CC4CCC(C3)O4)cc(N3CC4CCC(C3)O4)n2)cc1` [1-[4-(4,6-di-8-oxa-3-azabicyclo[3.2.1]oct-3-ylpyrimidin-2-yl)phenyl]-3-methylurea] the same measures were 7.05 nM, 1000 nM, 1080 nM and 250 nM.
For the compound `CS(=O)(=O)Cc1cc(N2CC3CCC(C2)O3)nc(-c2ccc(NC(=O)Nc3cccnc3)cc2)n1` [1-(4-{4-[(methylsulfonyl)methyl]-6-(8-oxa-3-azabicyclo[3.2.1]oct-3-yl)pyrimidin-2-yl}phenyl)-3-pyridin-3-ylurea], the IC50 at mTOR stood at 1.02 nM; with MDA468 it was 170 nM; on PI3K-alpha it was 341 nM; in the experiment with LNCap it was 195 nM.
On to `CN1CCN(c2ccc(NC(=O)Nc3ccc(-c4nc(N5CC6CCC(C5)O6)cc(C(F)(F)F)n4)cc3)cc2)CC1` [1-[4-(4-methylpiperazin-1-yl)phenyl]-3-{4-[4-(8-oxa-3-azabicyclo[3.2.1]oct-3-yl)-6-(trifluoromethyl)pyrimidin-2-yl]phenyl}urea], for which the IC50 against mTOR came to 11 nM; in the experiment with MDA468, 190 nM; at PI3K-alpha, 440 nM; in the experiment on LNCap it was 50 nM.
The matching figures for `O=C(Nc1ccncc1)Nc1ccc(-c2cc(N3CC4CCC(C3)O4)nc(N3CC4CCC(C3)O4)n2)cc1` [1-[4-(2,6-di-8-oxa-3-azabicyclo[3.2.1]oct-3-ylpyrimidin-4-yl)phenyl]-3-pyridin-4-ylurea]: 2.45 nM, 380 nM, 137 nM and 130 nM.
As to `CC(C)Nc1cc(N2CC3CCC(C2)O3)nc(-c2ccc(NC(=O)NC3CC3)cc2)n1` [1-cyclopropyl-3-(4-{4-[(1-methylethyl)amino]-6-(8-oxa-3-azabicyclo[3.2.1]oct-3-yl)pyrimidin-2-yl}phenyl)urea], the IC50 against mTOR stood at 8.2 nM; with MDA468, 4200 nM; on PI3K-alpha, 3620 nM; in the experiment on LNCap, 700 nM.
Consider `CS(=O)(=O)Cc1cc(N2CC3CCC(C2)O3)nc(-c2ccc(NC(=O)Nc3ccccc3)cc2)n1` [1-(4-{4-[(methylsulfonyl)methyl]-6-(8-oxa-3-azabicyclo[3.2.1]oct-3-yl)pyrimidin-2-yl}phenyl)-3-phenylurea], for which the IC50 against mTOR turned out to be 3 nM; in the experiment with MDA468, 9 nM; on PI3K-alpha, 172 nM; in the experiment with LNCap it was 0.9 nM.
Regarding `CN1CCN(c2ccc(NC(=O)Nc3ccc(-c4cc(N5CC6CCC(C5)O6)nc(-c5ccc(NC(=O)Nc6ccc(N7CCN(C)CC7)cc6)cc5)n4)cc3)cc2)CC1` [N′,N′″-{[6-(8-oxa-3-azabicyclo[3.2.1]oct-3-yl)pyrimidine-2,4-diyl]di-4,1-phenylene}bis{1-[4-(4-methylpiperazin-1-yl)phenyl]urea}], the IC50 was 2.15 nM against mTOR, 760 nM in the experiment on MDA468, 1020 nM at PI3K-alpha and 300 nM in the experiment with LNCap.
As for `CNC(=O)Nc1ccc(-c2nccc(N3CC4CCC(C3)O4)n2)cc1` [1-methyl-3-{4-[4-(8-oxa-3-azabicyclo[3.2.1]oct-3-yl)pyrimidin-2-yl]phenyl}urea], the IC50 against mTOR stood at 132 nM; in the experiment with MDA468, 10500 nM; on PI3K-alpha it was 1840 nM; in the experiment with LNCap, 2500 nM.
For `O=C(Nc1ccncc1)Nc1ccc(-c2nc(N3CC4CCC(C3)O4)cc(N3CC4CCC(C3)O4)n2)cc1` [1-[4-(4,6-di-8-oxa-3-azabicyclo[3.2.1]oct-3-ylpyrimidin-2-yl)phenyl]-3-pyridin-4-ylurea], the IC50 at mTOR was 0.56 nM; in the experiment on MDA468, 50 nM; on PI3K-alpha, 125 nM; in the experiment with LNCap, 28 nM.
